The assay deals with Hypoxanthine-guanine phosphoribosyltransferase (Trypanosoma cruzi). The assay is described as follows: Inhibition of hypoxanthine-guanine phosphoribosyltransferase (TcHPRT).

Molecule `CN(C)CCC(O)(P(=O)(O)O)P(=O)(O)O` [hydrogen 3-(dimethylammonio)-1-hydroxy-1-(hydroxyphosphinato)propylphosphonate] showed a Ki of 126 µM.

As usually defined, the Ki is the dissociation constant of the complex between target and ligand, obtained from inhibition or displacement. Low readings indicate higher affinity, high ones lower affinity.

Values taken from BindingDB's records for doi:10.1016/j.bmcl.2004.06.042 (Universidad De Buenos Aires, 2004).
